Data set [1] is described as follows: RP-HPLC retention on Purosphere RP-18e (ODS) column, buffer pH 7.4-acetonitrile. The data set is classed as physicochemical. Particulars: for log kw, ODS: extrapolated to buffer pH 7.4 as mobile phase, 25 °C; for s ODS: slope of Soczewiński-Wachtmeister equation, acetonitrile φ 0.3–0.6. The protocol: (§1) Retention parameters reported as the log k values were calculated by the expression:(1) logk=log(tR−t0)/t0 where tR and t0 are the retention times of the solute and a non-retained compound (citric acid), respectively. They were used to calculate the log kw values, i.e., logarithms of retention parameter in the buffer as the mobile phase. For this purpose the Soczewiński-Wachtmeister’s equation was used:log k = log kw − sφ(2) where φ is the volume fraction of organic modifier in the mobile phase; k and kw are retention parameters corresponding to mixed effluent and buffer as the mobile phase, respectively. The slope s is characteristic of a given solute and chromatographic system. Strong linear relationships between log k and φ values were found for all the compounds in the range of effluent composition examined (R^2 > 0.9). The log kw values determined for the ODS (log kw, ODS), IAM (log kw, IAM) and Cholester (log kw, Cholester) columns were intercorrelated and the following linear relationships with a very good statistical quality were obtained:log kw, ODS = 0.691(± 0.094) + 0.982(± 0.044) log kw, IAM(3) SD = 0.257; R^2 = 0.8880; N = 65 log kw, ODS = 0.911(± 0.062) + 0.765(± 0.025) log kw, Cholester(4) SD = 0.192; R^2 = 0.9371; N = 65 log kw, IAM = 0.356(± 0.073) + 0.721(± 0.029) log kw, Cholester(5) SD = 0.224; R^2 = 0.9068; N = 65
(§2) Shimadzu Vp (Shimadzu, Izabelin, Poland) liquid chromatographic system equipped with LC 10AT pump, SPD 10A UV-Vis detector, SCL 10A system controller, CTO-10 AS chromatographic oven and Rheodyne injector valve with a 20 µL loop was applied in HPLC measurements. Three stationary phases were employed: • Purosphere RP-18e (ODS), 125 × 4 mm i.d., 5 µm (Merck); • IAM.PC.DD2 100 × 4.6 mm i.d., 10 µm (Regis Chemicals Company, Morton Grove, IL, USA); • Cosmosil Cholester, 75 × 2 mm i.d., 2.5 µm (Genore, Warsaw, Poland).
(§3) As mobile phases buffer-acetonitrile mixtures were used. The buffer was prepared from 0.01 mol L^−1 solutions of Na2HPO4 and citric acid and the pH 7.4 value was fixed before mixing with organic modifier. With the ODS column acetonitrile concentration in the effluent, expressed as a volume fraction (φ, v/v), was changed in the range 0.3–0.6, with the constant step of 0.1. The flow rate was 1 mL min^−1. With the IAM column acetonitrile concentration was changed in the range 0.2–0.5, also with the constant step of 0.1 and the flow rate was 1.3 mL min^−1. With the Cosmosil Cholester column acetonitrile concentration was changed in the range 0.4–0.6, with the constant step of 0.05 and the flow rate was 0.4 mL min^−1. Samples of test compounds were dissolved in acetonitrile—c.a. 0.005 mg mL^−1. […] They were detected under UV light at 210 and 254 nm. All measurements were carried out at 25 °C. The dead time values were measured from non-retained compound (citric acid) peaks. All reported log kw values are the average of at least three independent measurements. The extrapolated retention coefficients (logs kw) achieved by HPLC on ODS, IAM and Cholester stationary phases were used for modelling the log BB permeation of 65 drug-like compounds employed as a whole test set (Table 1).

The nature of data set [2]: RP-HPLC retention on IAM.PC.DD2 (immobilized artificial membrane) column, buffer pH 7.4-acetonitrile. In kind it is physicochemical. The note with it: for log kw, IAM: extrapolated to buffer pH 7.4 as mobile phase, 25 °C; for s IAM: slope of Soczewiński-Wachtmeister equation, acetonitrile φ 0.2–0.5. Here is the method:
as §1, §2, §3

A short description of data set [3]: RP-HPLC retention on Cosmosil Cholester column, buffer pH 7.4-acetonitrile. The data set is classed as physicochemical. Particulars: for log kw, Cholester: extrapolated to buffer pH 7.4 as mobile phase, 25 °C; for s Cholester: slope of Soczewiński-Wachtmeister equation, acetonitrile φ 0.4–0.6. Here is the method: as §1, §2, §3
The next data set deals with human cancer cells. Also on record: method as in doi:10.1016/j.arabjc.2016.12.024, PMID 24126095. Particulars: cited from earlier work.
A further data set has as its system normal cells. Also on record: method as in doi:10.1016/j.arabjc.2016.12.024, PMID 24126095. The note with it: cited from earlier work.

In the case of `O=c1c(CCc2ccccc2)nnc2n1CCN2c1ccccc1Cl` [Compound 63], in data set [1], the “log kw, ODS” value is on record as 2.46 and the “s ODS” value is 4.44. In data set [2], the “log kw, IAM” value is given as 1.81 and the “s IAM” value is recorded as 4.08. Moreover, in data set [3], the “log kw, Cholester” value is 1.94 and the “s Cholester” value is listed as 3.66. In the data set with human cancer cells, the “antiproliferative activities in human cancer cells” value (“antiproliferative activities” for short) is “significant antiproliferative activities”. Also, the “toxic effects for normal cells” value in the data set with normal cells was “less toxic effects”.
Consider `CCc1nnc2n(c1=O)CCN2c1ccccc1` [Compound 1], for which, in data set [1], the “log kw, ODS” value was 0.97 and the “s ODS” value worked out at 2.70. Moreover, in data set [2], the “log kw, IAM” value is 0.55 and the “s IAM” value stood at 2.10. In addition, in data set [3], the “log kw, Cholester” value was 0.20 and the “s Cholester” value is given as 1.25. The “antiproliferative activities” value in the data set on human cancer cells is given as “significant antiproliferative activities”. In the data set on normal cells, the “toxic effects for normal cells” value was “less toxic effects”.
For the compound `O=c1c(CCc2ccccc2)nnc2n1CCN2c1ccc(Cl)cc1` [Compound 64], in data set [1], the “log kw, ODS” value was 3.56 and the “s ODS” value was 5.81. In data set [2], the “log kw, IAM” value is given as 2.68 and the “s IAM” value is listed as 5.44. Also, in data set [3], the “log kw, Cholester” value is on record as 3.22 and the “s Cholester” value turned out to be 5.12. Further, the “antiproliferative activities” value with human cancer cells is “significant antiproliferative activities”. In addition, the “toxic effects for normal cells” value in the data set on normal cells is given as “less toxic effects”.
In the case of `CCc1nnc2n(c1=O)CCN2c1ccc(C)cc1` [Compound 2], in data set [1], the “log kw, ODS” value is 1.30 and the “s ODS” value is recorded as 3.12. In addition, in data set [2], the “log kw, IAM” value is recorded as 1.00 and the “s IAM” value is listed as 2.88. Moreover, in data set [3], the “log kw, Cholester” value is 0.57 and the “s Cholester” value turned out to be 1.84. The “antiproliferative activities” value in the data set on human cancer cells is given as “significant antiproliferative activities”. Also, the “toxic effects for normal cells” value in the data set with normal cells is “less toxic effects”.
In the case of `CCOC(=O)Cc1nnc2n(c1=O)CCN2c1cccc(Cl)c1` [Compound 15], in data set [1], the “log kw, ODS” value is 2.85 and the “s ODS” value is on record as 4.90. Also, in data set [2], the “log kw, IAM” value is 2.05 and the “s IAM” value amounted to 4.45. In data set [3], the “log kw, Cholester” value is 2.41 and the “s Cholester” value was 4.15. The “antiproliferative activities” value in the data set with human cancer cells was “significant antiproliferative activities”. Moreover, the “toxic effects for normal cells” value in the data set on normal cells is reported as “less toxic effects”.
As to `Cc1cccc(N2CCn3c2nnc(-c2ccco2)c3=O)c1C` [Compound 21], in data set [1], the “log kw, ODS” value is given as 2.26 and the “s ODS” value is 4.20. Further, in data set [2], the “log kw, IAM” value is given as 1.42 and the “s IAM” value was 3.51. Also, in data set [3], the “log kw, Cholester” value was 1.66 and the “s Cholester” value is 3.33. In addition, the “antiproliferative activities” value in the data set with human cancer cells is “significant antiproliferative activities”. The “toxic effects for normal cells” value with normal cells was “less toxic effects”.
Turning to `COc1ccccc1N1CCn2c1nnc(-c1ccco1)c2=O` [Compound 22], in data set [1], the “log kw, ODS” value is recorded as 1.67 and the “s ODS” value was determined as 3.48. Also, in data set [2], the “log kw, IAM” value is 1.11 and the “s IAM” value is 3.02. Further, in data set [3], the “log kw, Cholester” value is reported as 1.22 and the “s Cholester” value was found to be 2.68. Further, the “antiproliferative activities” value with human cancer cells is reported as “significant antiproliferative activities”. The “toxic effects for normal cells” value with normal cells is “less toxic effects”.
In the case of `O=c1c(-c2ccccc2)nnc2n1CCN2c1ccc(Cl)cc1` [Compound 39], in data set [1], the “log kw, ODS” value is given as 3.41 and the “s ODS” value turned out to be 5.20. For the same compound, in data set [2], the “log kw, IAM” value is 2.57 and the “s IAM” value came to 5.32. For the same compound, in data set [3], the “log kw, Cholester” value is 3.19 and the “s Cholester” value worked out at 5.30. In addition, the “antiproliferative activities” value in the data set on human cancer cells is on record as “significant antiproliferative activities”. In addition, in the data set with normal cells, the “toxic effects for normal cells” value is “less toxic effects”.
As to `CCc1nnc2n(c1=O)CCN2c1ccc(Cl)cc1` [Compound 5], in data set [1], the “log kw, ODS” value is on record as 1.78 and the “s ODS” value is recorded as 3.56. In addition, in data set [2], the “log kw, IAM” value is given as 1.24 and the “s IAM” value is reported as 3.25. In data set [3], the “log kw, Cholester” value is on record as 1.18 and the “s Cholester” value was 2.61. The “antiproliferative activities” value in the data set with human cancer cells is on record as “significant antiproliferative activities”. The “toxic effects for normal cells” value in the data set on normal cells was “less toxic effects”.
For `O=c1c(-c2ccco2)nnc2n1CCN2c1ccccc1Cl` [Compound 24], in data set [1], the “log kw, ODS” value is reported as 2.25 and the “s ODS” value is on record as 4.22. Further, in data set [2], the “log kw, IAM” value is reported as 1.27 and the “s IAM” value worked out at 3.25. Moreover, in data set [3], the “log kw, Cholester” value is on record as 1.34 and the “s Cholester” value was 2.95. Further, the “antiproliferative activities” value in the data set with human cancer cells is listed as “significant antiproliferative activities”. For the same compound, the “toxic effects for normal cells” value in the data set on normal cells was “less toxic effects”.
As to `O=c1c(-c2ccco2)nnc2n1CCN2c1ccc(Cl)cc1` [Compound 26], in data set [1], the “log kw, ODS” value is listed as 2.65 and the “s ODS” value worked out at 4.59. In data set [2], the “log kw, IAM” value is given as 2.02 and the “s IAM” value was 4.44. In data set [3], the “log kw, Cholester” value was 2.29 and the “s Cholester” value is 4.15.
On to `CCOC(=O)Cc1nnc2n(c1=O)CCN2c1ccccc1` [Compound 12], for which, in data set [1], the “log kw, ODS” value was 1.75 and the “s ODS” value is 3.61. In addition, in data set [2], the “log kw, IAM” value is reported as 1.21 and the “s IAM” value is listed as 3.11. Also, in data set [3], the “log kw, Cholester” value is listed as 1.11 and the “s Cholester” value amounted to 2.55.
As for `CCOc1ccc(N2CCn3c2nnc(Cc2cccc(Cl)c2)c3=O)cc1` [Compound 54], in data set [1], the “log kw, ODS” value is given as 3.35 and the “s ODS” value was found to be 5.55. In addition, in data set [2], the “log kw, IAM” value was 2.73 and the “s IAM” value stood at 5.61. Further, in data set [3], the “log kw, Cholester” value was 3.31 and the “s Cholester” value is listed as 5.22.
As for `O=c1c(-c2ccco2)nnc2n1CCN2c1c(Cl)cccc1Cl` [Compound 28], in data set [1], the “log kw, ODS” value was 2.53 and the “s ODS” value is reported as 4.45. Further, in data set [2], the “log kw, IAM” value is 1.70 and the “s IAM” value amounted to 3.90. In data set [3], the “log kw, Cholester” value is 2.05 and the “s Cholester” value is recorded as 3.66. In the data set on human cancer cells, the “antiproliferative activities” value is “significant antiproliferative activities”. The “toxic effects for normal cells” value with normal cells was “less toxic effects”.
In the case of `CCc1nnc2n(c1=O)CCN2c1cccc(Cl)c1` [Compound 4], in data set [1], the “log kw, ODS” value was 1.33 and the “s ODS” value worked out at 3.15. Also, in data set [2], the “log kw, IAM” value is reported as 0.84 and the “s IAM” value is listed as 2.60. In data set [3], the “log kw, Cholester” value was 0.62 and the “s Cholester” value turned out to be 1.82. Moreover, the “antiproliferative activities” value with human cancer cells is recorded as “significant antiproliferative activities”. Further, the “toxic effects for normal cells” value in the data set with normal cells is given as “less toxic effects”.
Regarding `O=c1c(Cc2ccc(Cl)cc2)nnc2n1CCN2c1ccccc1` [Compound 44], in data set [1], the “log kw, ODS” value is 3.60 and the “s ODS” value is given as 5.62. Besides, in data set [2], the “log kw, IAM” value is recorded as 2.39 and the “s IAM” value amounted to 4.81. Further, in data set [3], the “log kw, Cholester” value is listed as 3.01 and the “s Cholester” value amounted to 4.70.

These data come from PMC7037052, “Predicting the Blood-Brain Barrier Permeability of New Drug-Like Compounds via HPLC with Various Stationary Phases” (Molecules, 2020).
